According to patent US20220154156A1, “PROTEINS AND METHODS FOR DISRUPTING BACTERIAL COMMUNICATION” (REGENTS OF THE UNIVERSITY OF MINNESOTA, priority 2019, published 2022):
Where two headings read alike, the source gives them in different places.

Key:
[1] = system: Geobacillus caldoxylosilyticus GcL (SEQ ID NO: 1) variant GcL 4 (C147S/H178D/L183E/M244A); assay: Lactonase assay of variant GcL 4; assay type: biochemical; details: for catalytic proficiency compared with the wt enzyme: GcL 4 vs GcL wt
Method: (§1) Kinetic measurements. The determination of GcL catalytic efficiency was performed by using a microplate reader (Synergy HTX, BioTek, USA) and the software Gen5.1 over a range of substrates (FIG. 2). The reactions were operate in a 96-well plate at a path length of 5.8 mm for a 200 μl reaction volume at room temperature. The catalytic parameters were achieved by fitting the data to Michaelis-Menten equation with the Graph-Pad Prism 5 software. When, Vmax was not reached, the catalytic efficiency was determined by fitting the linear part of Michaelis-Menten plot to a linear regression using Graph-Pad Prism 5.
(§2) Lactonase assay. The AHL lactonolysis consisting in the opening of the lactone ring generates a proton, and leads to an acidification of the media. This property allowed the characterization of the lactonases by using a pH indicator assay. To perform the experiment 5 μl of enzyme were added to a solution containing 10 μl of substrates at various concentrations and 185 μl of lactonase buffer (2.5 mM Bicine pH 8.3, 150 mM NaCl, 0.2 mM CoCl2, 0.2 mM cresol purple, 0.5% DMSO). This assay was performed at 25° C. and the time course of the lactones hydrolysis was recorded at 577 nm. The characterization of the enzyme was proceeding against a large panel of AHLs: C4-AHL, C6-AHL, C8-AHL, C10-AHL, 3-oxo-C8-AHL and against γ-Butyrolactone, γ-Heptalactone, γ-Nonalactone, γ-Decanolactone, δ-Valerolactone, δ-Octanolactone, δ-Nonalactone, δ-Decalactone, ε-Caprolactone, ε-Decalactone, Whiskey lactone.
We determined the ability of these two variants to hydrolyze a wide range of lactones as substrates, using the assay described in the previous chapter. GcL 4 was assayed against substrates C4 AHIL, C8 AHIL, 3-oxo-C8 AHL, 3-oxo-C12 AHL, γ-Butyrolactone, γ-Nonalactone, γ-Decanolactone, δ-Valerolactone, δ-Octanolactone, δ-Decalactone, ε-Caprolactone, ε-Decalactone and Whiskey Lactone, while GcL […] was assayed against C4 AHL, C8 AHL, 3-oxo-C8 AHL, 3-oxo-C12 AHIL, γ-Butyrolactone, γ-Heptalactone, γ-Nonalactone, γ-Decanolactone, δ-Valerolactone, δ-Nonalactone, δ-Decalactone, ε-Caprolactone, ε-Decalactone and Whiskey Lactone (Table 6).

[2] = system: Geobacillus caldoxylosilyticus GcL (SEQ ID NO: 1) variant GcL 14 (Q41P/S66A/S81A/T91S/R111K/F141/A144T/C147S/V1751/H178D/I182L/L183E/M244A/N245K); assay: Lactonase assay of variant GcL 14; assay type: biochemical; details: for catalytic proficiency compared with the wt enzyme: GcL 14 vs GcL wt
[3] = system: Geobacillus caldoxylosilyticus lactonase GcL, wild type, SEQ ID NO: 1; details: cited from earlier work
[4] = system: Geobacillus caldoxylosilyticus lactonase GcL, wild type, SEQ ID NO: 1; assay: Lactonase assay (pH indicator, cresol purple) of GcL wt; assay type: biochemical; details: 25° C., pH 8.3; Table 4, substrates without asterisk
Method: as §1, §2

[5] = Table 4, substrates marked *, Data from^17

Structure (SMILES)	Km ([1]; GcL 4, Table 6)	kcat ([1]; GcL 4, Table 6)	Km ([2]; GcL 14, Table 6)	kcat ([2]; GcL 14, Table 6)	Km [3, 5]	kcat [3, 5]	Km ([1]; GcL 4)	Km ([2]; GcL 14)	Km ([3]; wt enzyme, C4 AHL marked * (ref 17) in Table 4)	Km [4]	kcat [4]	catalytic proficiency compared with the wt enzyme [1]	catalytic proficiency compared with the wt enzyme [2]
CCCCCC(=O)CC(=O)N[C@H]1CCOC1=O [3-oxo-C8-AHL]	1.09 ± 0.28 µM	76.4 ± 3.87 s⁻¹	0.29 ± 0.08 µM	76.00 ± 4.04 s⁻¹	2.19 ± 0.37 µM	9.48 ± 0.35 s⁻¹	–	–	–	–	–	–	–
CCCCCCCCCC(=O)CC(=O)N[C@H]1CCOC1=O [3-oxo-C12 AHL]	–	–	0.5 ± 0.12 µM	15.88 ± 0.45 s⁻¹	–	–	–	–	–	–	–	–	–
CCCC(=O)N[C@H]1CCOC1=O [C4-AHL]	0.75 ± 0.24 µM	18.25 ± 0.85 s⁻¹	0.92 ± 0.27 µM	15.01 ± 0.61 s⁻¹	229 ± 57 µM	19.06 ± 1.51 s⁻¹	~1 µM	~1 µM	~230 µM	–	–	–	–
CCCCCC(=O)N[C@H]1CCOC1=O [C6-AHL]	–	–	–	–	7.97 ± 1.89 µM	8.95 ± 0.48 s⁻¹	–	–	–	–	–	–	–
CCCCCCCC(=O)N[C@H]1CCOC1=O [C8-AHL]	0.81 ± 0.2 µM	–	1.32 ± 0.34 µM	18.38 ± 0.86 s⁻¹	–	–	–	–	–	3.12 ± 0.75 µM	1.29 ± 0.04 s⁻¹	–	–
CCCCCCCCCC(=O)NC1CCOC1=O (stereo not drawn) [C10-AHL]	–	–	–	–	1.45 ± 0.47 µM	5.48 ± 0.37 s⁻¹	–	–	–	–	–	–	–
CCCCC1OC(=O)CC1C (stereo not drawn) [Whiskey lactone]	–	8.4 ± 0.39 s⁻¹	14 ± 3.74 µM	7.98 ± 0.63 s⁻¹	–	–	–	–	–	0.67 ± 0.21 µM	9.34 ± 0.39 s⁻¹	similar	similar
O=C1CCCO1 [γ-Butyrolactone]	1.99 ± 0.45 µM	8.42 ± 0.42 s⁻¹	5.9 ± 1.67 µM	9.89 ± 0.75 s⁻¹	–	–	–	–	–	21.1 ± 7.6 µM	2.49 ± 0.15 s⁻¹	–	–
CCCCCCC1CCC(=O)O1 (stereo not drawn) [γ-Decanolactone]	1.31 ± 0.28 µM	22.24 ± 1.10 s⁻¹	0.32 ± 0.14 µM	13.7 ± 0.73 s⁻¹	–	–	–	–	–	7.14 ± 1.03 µM	2.69 ± 0.11 s⁻¹	–	–
CCCC1CCC(=O)O1 (stereo not drawn) [γ-Heptalactone]	–	–	2.77 ± 0.53 µM	20.95 ± 0.93 s⁻¹	–	–	–	–	–	2.01 ± 0.71 µM	1.77 ± 0.06 s⁻¹	–	–
CCCCCC1CCC(=O)O1 (stereo not drawn) [γ-Nonalactone]	2.54 ± 0.97 µM	18.3 ± 0.90 s⁻¹	9.09 ± 2.2 µM	23.61 ± 1.40 s⁻¹	–	–	–	–	–	11.6 ± 3.1 µM	18.14 ± 0.9 s⁻¹	similar	similar
CCCCCC1CCCC(=O)O1 (stereo not drawn) [δ-Decalactone]	5.54 ± 0.13 µM	10.28 ± 0.76 s⁻¹	0.32 ± 0.14 µM	13.7 ± 0.73 s⁻¹	–	–	–	–	–	3.13 ± 0.9 µM	4.1 ± 0.18 s⁻¹	similar	similar
CCCCC1CCCC(=O)O1 (stereo not drawn) [δ-Nonalactone]	–	–	9.09 ± 2.2 µM	23.61 ± 1.40 s⁻¹	–	–	–	–	–	8.05 ± 2.5 µM	2.01 ± 0.14 s⁻¹	–	–
CCCC1CCCC(=O)O1 (stereo not drawn) [δ-Octanolactone]	1.92 ± 0.54 µM	22.01 ± 1.17 s⁻¹	–	–	–	–	–	–	–	18.3 ± 7 µM	12.58 ± 0.85 s⁻¹	–	–
O=C1CCCCO1 [δ-Valerolactone]	3.13 ± 0.1 µM	11.94 ± 1.03 s⁻¹	1.12 ± 0.12 µM	22.13 ± 0.41 s⁻¹	–	–	–	–	–	5.67 ± 0.94 µM	1.27 ± 0.03 s⁻¹	–	–
O=C1CCCCCO1 [ε-Caprolactone]	1.3 ± 0.49 µM	12.63 ± 0.95 s⁻¹	2.49 ± 0.67 µM	23.74 ± 1.26 s⁻¹	–	–	–	–	–	10.6 ± 3.2 µM	8.79 ± 0.43 s⁻¹	–	–
CCCCC1CCCCC(=O)O1 (stereo not drawn) [ε-Decalactone]	1.41 ± 0.3 µM	6.3 ± 0.29 s⁻¹	7.98 ± 2.47 µM	10.41 ± 0.85 s⁻¹	–	–	–	–	–	1.05 ± 0.38 µM	1.01 ± 0.04 s⁻¹	similar	similar
